Assay results as given in ChEMBL document CHEMBL5728847, “Cyanoindoline derivatives as NIK inhibitors” (2021).

Target: Mitogen-activated protein kinase kinase kinase 14 (Homo sapiens, UniProt Q99558)
Experiment: Inhibition of Auto-Phosphorylation of Recombinant Human NF-kappaB-Inducing Kinase (NIK1/AP3K14) Activity: NIK/MAP3K14 auto-phosphorylation activity was measured using the AlphaScreen® (αscreen) format (Perkin Elmer). All compounds tested were dissolved in dimethyl sulfoxide (DMSO) and further dilutions were made in assay buffer. Final DMSO concentration was […] in assays. Assay buffer was 50 mM Tris pH 7.5 containing 1 mM EGTA (ethylene glycol tetraacetic acid), 1 mM DTT (dithiothreitol), 0.1 mM Na3VO4, 5 mM MgCl2, 0.01% Tween® 20. Assays were carried out in 384 well Alphaplates (Perkin Elmer). Incubations consisted of compound, 25 microM Adenosine-5′-triphosphate (ATP), and 0.2 nM NIK/MAP3K14. Incubations were initiated by addition of GST-tagged NIK/MAP3K14 enzyme, carried out for 1 h at 25° C. and terminated by addition of stop buffer containing anti-phospho-[…] Ser176/180 antibody. Protein A Acceptor and Glutathione-Donor beads were added before reading using an EnVision® Multilabel Plate Reader (Perkin Elmer). Signal obtained in the wells containing blank samples was subtracted from all other wells and IC50's were determined by fitting a sigmoidal curve to % inhibition of control versus Log10 compound concentration.

Sequence of Mitogen-activated protein kinase kinase kinase 14 (Q99558 whole entry): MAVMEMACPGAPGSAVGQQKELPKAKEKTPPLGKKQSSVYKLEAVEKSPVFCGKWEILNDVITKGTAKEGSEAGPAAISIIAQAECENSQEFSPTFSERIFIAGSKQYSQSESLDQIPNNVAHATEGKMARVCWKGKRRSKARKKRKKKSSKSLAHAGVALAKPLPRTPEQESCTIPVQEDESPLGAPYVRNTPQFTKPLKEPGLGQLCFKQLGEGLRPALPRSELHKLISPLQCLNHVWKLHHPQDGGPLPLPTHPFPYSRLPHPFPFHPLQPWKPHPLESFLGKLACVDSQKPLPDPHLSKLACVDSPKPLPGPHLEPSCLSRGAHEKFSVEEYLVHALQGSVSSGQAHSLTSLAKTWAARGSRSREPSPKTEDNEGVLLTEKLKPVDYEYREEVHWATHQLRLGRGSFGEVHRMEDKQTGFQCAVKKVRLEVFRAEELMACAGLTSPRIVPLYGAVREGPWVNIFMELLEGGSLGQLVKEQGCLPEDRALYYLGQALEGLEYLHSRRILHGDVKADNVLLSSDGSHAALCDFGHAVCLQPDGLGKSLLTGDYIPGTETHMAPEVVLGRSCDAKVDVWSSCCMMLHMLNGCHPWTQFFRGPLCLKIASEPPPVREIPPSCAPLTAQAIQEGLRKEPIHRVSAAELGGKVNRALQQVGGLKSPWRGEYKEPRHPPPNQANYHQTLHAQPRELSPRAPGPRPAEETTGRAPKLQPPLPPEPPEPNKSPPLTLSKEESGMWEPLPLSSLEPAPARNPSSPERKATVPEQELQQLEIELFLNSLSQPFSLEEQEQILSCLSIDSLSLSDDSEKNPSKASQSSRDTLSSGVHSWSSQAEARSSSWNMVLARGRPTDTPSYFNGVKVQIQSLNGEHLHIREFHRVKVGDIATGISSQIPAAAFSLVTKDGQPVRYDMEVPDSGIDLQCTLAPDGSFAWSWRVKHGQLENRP

IC50 [nM] | SMILES
4.2 | CN1CCc2ncc(Nc3ncc(F)c(-c4cc(C#N)c5c(c4)[C@@](C)(CO)CN5)n3)cc2C1
1.8 | COc1nc2c(cc1Nc1nccc(-c3cc(C#N)c4c(c3)[C@@](C)(CO)CN4)n1)CCN(C)C2
148 | CC1(C)CNc2c(C#N)cc(-c3ccnc(Nc4cc(Cl)cc5[nH]ccc45)n3)cc21
